Experimental data as given in ChEMBL document CHEMBL1221262, “Synthesis and antituberculosis activity of new fatty acid amides” (2010).
In brackets after ≈: the same amount, converted by molar mass.

Columns and labels:
[1] = system: Mycobacterium tuberculosis; assay: Antitubercular activity against isoniazid-resistant Mycobacterium tuberculosis H37Rv ATCC 35822 after 7 days by resazurin microtiter assay; format: functional; conditions: H37Rv ATCC 35822, 168 h
[2] = system: Mycobacterium tuberculosis; assay: Antitubercular activity against rifampicin-resistant Mycobacterium tuberculosis H37Rv ATCC 35338 after 7 days by resazurin microtiter assay; format: functional; conditions: H37Rv ATCC 35338, 168 h

Row | Compound | MIC [1] [µg/mL] | MIC [2] [µg/mL]
1 | CCCCCC[C@@H](O)C/C=C\CCCCCCCC(=O)N1CCCC1 | 6.25 (≈ 17.8 µM) | 6.25 (≈ 17.8 µM)
2 | CCCCC/C=C\C/C=C\CCCCCCCC(=O)N[C@@H](C)c1ccccc1 | 6.25 (≈ 16.3 µM) | 12.5 (≈ 32.6 µM)
3 | CCCCCCCC/C=C\CCCCCCCC(=O)NCCO [OLEOYLETHANOLAMIDE] | 12.5 (≈ 38.4 µM) | 25 (≈ 76.8 µM)
4 | CCCCCCCC/C=C\CCCCCCCC(=O)N1CCCC1 | 6.25 (≈ 18.6 µM) | 12.5 (≈ 37.2 µM)
5 | CCCCCCCC/C=C\CCCCCCCC(=O)NCc1ccccc1 | 100 (≈ 269 µM) | –
6 | CCCCCC[C@@H](O)C/C=C\CCCCCCCC(=O)NCc1ccccc1 | 12.5 (≈ 32.2 µM) | 12.5 (≈ 32.2 µM)
7 | CCCCCCCCCCCCCCCC(=O)N[C@@H](C)c1ccccc1 | > 100 | > 100
8 | CCCCCCCCCCCCCCCCCC(=O)N[C@H](C)c1ccccc1 | > 100 | > 100
9 | CCCCC/C=C\C/C=C\CCCCCCCC(=O)N1CCCC1 | 12.5 (≈ 37.5 µM) | 12.5 (≈ 37.5 µM)
10 | CCCCCCCCCCCCCCCC(=O)N[C@H](C)c1ccccc1 | > 100 | > 100
11 | CCCCCCCCCCCCCCCCCC(=O)N[C@@H](C)c1ccccc1 | > 100 | > 100
12 | CCCCCCCCCCCCCCCC(=O)N1CCCCC1 | 25 (≈ 77.3 µM) | 25 (≈ 77.3 µM)
13 | CCCCCCCC/C=C\CCCCCCCC(=O)N1CCCCC1 | 12.5 (≈ 35.8 µM) | 25 (≈ 71.5 µM)
14 | CCCCCCCCCCCCCCCC(=O)N1CCCC1 | 25 (≈ 80.8 µM) | 25 (≈ 80.8 µM)
15 | CCCCCC[C@@H](O)C/C=C\CCCCCCCC(=O)N[C@H](C)c1ccccc1 | 12.5 (≈ 31.1 µM) | 25 (≈ 62.2 µM)
16 | CCCCC/C=C\C/C=C\CCCCCCCC(=O)N[C@H](C)c1ccccc1 | 12.5 (≈ 32.6 µM) | 25 (≈ 65.2 µM)
17 | CCCCCCCC/C=C\CCCCCCCC(=O)N[C@H](C)c1ccccc1 | 12.5 (≈ 32.4 µM) | 50 (≈ 130 µM)
18 | CCCCCC[C@@H](O)C/C=C\CCCCCCCC(=O)N1CCOCC1 | 6.25 (≈ 17 µM) | 12.5 (≈ 34 µM)
19 | CCCCCCCC/C=C\CCCCCCCC(=O)N1CCOCC1 | 6.25 (≈ 17.8 µM) | 12.5 (≈ 35.6 µM)
20 | CCCCCCCC/C=C\CCCCCCCC(=O)NC(C)c1ccccc1 (configuration not stated) | – | 100 (≈ 259 µM)
21 | CCCCCCCCCCCCCCCC(=O)NCCO [PALMIDROL] | > 100 | > 100
22 | CCCCCC[C@@H](O)C/C=C\CCCCCCCC(=O)N[C@@H](C)c1ccccc1 | 100 (≈ 249 µM) | 50 (≈ 124 µM)
